Compound	logP
O=C1NC(=O)C(c2ccccc2)(c2ccccc2)C(=O)N1	1.96
CCC1(CC=C(C)C)C(=O)NC(=O)NC1=O	1.73
O=C1NC(=S)NC(=O)C12CCCCC2	1.78
O=C1NC(=O)C2(CCC2)C(=O)N1	-0.27
O=C1NC(=O)C2(CCCCCC2)C(=O)N1	1.36
O=C1NC(=O)C2(CCCCC2)C(=O)N1	0.91
CC1(c2ccccc2)C(=O)NC(=O)NC1=O	0.91
CC(C)=CCC1(C(C)C)C(=O)NC(=O)NC1=O	2.23
CC(C)=CCC1(C(C)(C)C)C(=O)NC(=O)NC1=O	2.56
O=C1NC(=O)C2(CCCC2)C(=O)N1	0.24
O=C1NC(=O)C2(CCCCCCCCCCC2)C(=O)N1	3.51
C=CCC1(C)C(=O)NC(=O)NC1=O	0.36
CC1(C)C(=O)NC(=O)NC1=O	-0.44
O=C1NC(=O)C2(CC2)C(=O)N1	-0.53
CCC1(C)C(=O)NC(=O)NC1=O	0.08
O=C1NC(=O)C2(CCCCCCCCCC2)C(=O)N1	3.15
O=C1NC(=O)C2(CCCCCCC2)C(=O)N1	1.79

— the OPERA property sets (Mansouri et al. 2018)
